Test results published in patent US20170007619A1, “High Dose Dehydroepiandrosterone as Anticancer Treatment With Multi-faceted Reconstitution of Otherwise Depleted Metabolites” (priority 2015, published 2017).
Entries after “also recorded” stand apart in the source; their conditions may differ.

Columns and labels:
[1] = Side effects of HD DHEA and their prevention by reconstitution; assay type: in vivo, dogs; conditions: for DHEA-induced ocular (ophthalmic) inflammation on reconstitution: dogs administered DHEA, IPA (and BH4) added; for susceptibility to infections under DHEA with concurrent reconstitution: dogs and cats; for susceptibility to infections under DHEA with concurrent reconstitution / fluid retention symptoms under DHEA with concurrent reconstitution: concurrent BH4, potassium nitrate and IPA; for fluid retention symptoms under DHEA with concurrent reconstitution: dogs
Description: Table 1. Physical symptoms associated with HD DHEA-induced Nitric Oxide (NO) depletion.

[2] = Depletion and reconstitution of metabolites in dogs treated with HD DHEA; assay type: in vivo; conditions: for ubiquinone levels with supplementation in DHEA-treated animals: supplementation with ubiquinone and tocotrienols
Experimental: FIG. 4. […] For IPA quantitation, preliminary in vitro studies were performed in which DHEA-treated and control HT-29SF cells were exposed to [^3H]-mevalonic acid (saponified; data not shown). […] For ease of presentation, pretreatment values for all 3 determinations (BH4, IPA and ubiquinone) were given a value of 1, with treatment values presented as their respective fraction thereof. Male and female dogs had blood or other specimens drawn pretreatment, and then following 90 days of 10 mg/kg DHEA±reconstitution protocol.
FIG. 6. […] Fifteen ml blood samples were drawn and the buffy coat was isolated by low speed centrifugation in the standard manner. […] AMP, ADP and ATP were quantitated. […] For ease of presentation, pretreatment values are presented with a value of 1, with treatment values presented as their respective fraction thereof.
FIG. 8. […] Ten mg of intestinal mucosa was analyzed for each animal. […] Results are presented as percentage of values in pretreatment dogs, mean±SEM.
FIG. 10. […] 24 hour urine was collected from neutered male and female animals in amber glass containment vessels. To 100 ml of urine was added 1 ml of concentrated HCL as preservative. […] These same dogs were then administered DHEA (10 mg/kg)±the reconstitution regimen which included the monoamine mix described above. This treatment continued for 90 days, at which time further urine specimens were collected and assayed for norepinephrine. The data are reported as the mean±SEM.
FIG. 11. […] Before treatment, 10-15 ml blood samples were taken from male and female neutered dogs, and plasma was collected by low speed centrifugation by the standard method.

statin-treated cells = conditions: cited from earlier work
[3] = test system: human colonic carcinoma HT29SF cells; assay: Flow cytometric cell cycle analysis of HT-29SF cells exposed to DHEA; assay type: cell-based
[4] = test system: 1,2-dimethylhydrazine-induced colonic tumors, which metastasize to the liver; assay: Carcinogen (1,2-dimethylhydrazine)-induced tumors in dogs ± HD DHEA (Table 2); assay type: in vivo
Description: Table 2. Decreased tumor volume and increased longevity in dogs administered HD DHEA to treat […] tumors. […] Organotropic carcinogens produce tumors in specific organs. Dimethylhydrazine produces exclusively colonic tumors, which metastasize to the liver. In this series of experiments 13 dogs were exposed to DMH only, and 13 were exposed to DMH followed by treatment with HD DHEA.

spontaneous cancers = assay: HD DHEA in cancer stricken dogs (spontaneous cancers, Table 3); assay type: in vivo
Description: In preliminary experiments we exposed human colonic carcinoma HT29SF cells to various doses of DHEA and assessed the effects of such treatment upon cell cycle kinetics.
Table 3. Decreased tumor volume, increased longevity (compared to historical controls), and improved quality of life in dogs with spontaneous cancers.

[5] = biological target: Glucose-6-phosphate dehydrogenase (G6PD) (Homo sapiens, UniProt P11413); conditions: cited from earlier work
Sequence of Glucose-6-phosphate dehydrogenase (G6PD) (P11413 whole entry, species assumed): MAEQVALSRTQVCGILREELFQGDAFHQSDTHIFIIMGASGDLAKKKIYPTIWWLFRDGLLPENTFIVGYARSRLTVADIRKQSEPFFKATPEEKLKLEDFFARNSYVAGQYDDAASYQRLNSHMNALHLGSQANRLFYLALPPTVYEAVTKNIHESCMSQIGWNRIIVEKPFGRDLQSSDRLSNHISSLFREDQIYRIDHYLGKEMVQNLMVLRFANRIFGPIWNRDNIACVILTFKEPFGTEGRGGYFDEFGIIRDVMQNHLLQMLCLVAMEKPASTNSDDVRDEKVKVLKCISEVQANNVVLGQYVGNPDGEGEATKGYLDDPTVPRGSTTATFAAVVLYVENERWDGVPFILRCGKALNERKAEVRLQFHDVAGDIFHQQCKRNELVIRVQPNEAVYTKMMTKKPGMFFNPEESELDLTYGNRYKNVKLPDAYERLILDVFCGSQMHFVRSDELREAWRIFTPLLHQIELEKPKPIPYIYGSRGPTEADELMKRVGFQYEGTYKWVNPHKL

[6] = DMH followed by HD DHEA, Student's t test
[7] = tissues of animals administered HD DHEA
[8] = tissues of dogs administered HD DHEA

CC(C)=CCNc1ncnc2c1ncn2[C@@H]1O[C@H](CO)[C@@H](O)[C@H]1O [IPA, N6-Δ2-isopentenyladenosine]
DHEA-induced ocular (ophthalmic) inflammation on reconstitution [1]: prevents; also recorded: completely prevent
susceptibility to infections under DHEA with concurrent reconstitution [1]: eliminated
fluid retention symptoms under DHEA with concurrent reconstitution [1]: eliminated

O=[N+]([O-])[O-].[K+] [potassium nitrate]
replenishment of NO in animals undergoing HD DHEA ([2]; potassium nitrate as NO donor): can replenish NO
symptoms associated with NO depletion ([1]; animals undergoing HD DHEA plus potassium nitrate): eliminating
susceptibility to infections under DHEA with concurrent reconstitution [1]: eliminated
fluid retention symptoms under DHEA with concurrent reconstitution [1]: eliminated

COC1=C(OC)C(=O)C(C/C=C(\C)CC/C=C(\C)CC/C=C(\C)CC/C=C(\C)CC/C=C(\C)CC/C=C(\C)CC/C=C(\C)CC/C=C(\C)CC/C=C(\C)CCC=C(C)C)=C(C)C1=O [ubiquinone]
combination of ubiquinone and tocotrienols vs ubiquinone alone, retaining ubiquinone levels ([2]; DHEA-treated animals): more effective
ubiquinone levels with supplementation in DHEA-treated animals [2]: maintains normal or near normal ubiquinone levels

tocotrienols
combination of ubiquinone and tocotrienols vs ubiquinone alone, retaining ubiquinone levels ([2]; DHEA-treated animals): more effective
ubiquinone levels with supplementation in DHEA-treated animals [2]: maintains normal or near normal ubiquinone levels

CC(C)=CCNc1ncnc2nc[nH]c12 [Isopentenyladenine]
activity in restoring DNA synthesis relative to mevalonate (statin-treated cells): approximately 100 fold

C[C@]12CC[C@H](O)CC1=CC[C@@H]1[C@@H]2CC[C@]2(C)C(=O)CC[C@@H]12 [DHEA, Dehydroepiandrosterone]
effect on cell cycle kinetics ([3]; HT29SF cells exposed to various doses of DHEA): arrested cells in the G1 phase of the cell cycle
number of tumors induced, control vs HD DHEA-treated dogs ([4]; 13 dogs DMH only vs 13 DMH followed by HD DHEA): not statistically different
number and total weight of hepatic metastases, control vs HD DHEA-treated dogs [4, 6]: statistically significant
weight of the individual colonic tumors, control vs HD DHEA-treated dogs [4, 6]: statistically significant
longevity (spontaneous cancers; HD DHEA): significant improvements in longevity
tumor volume (spontaneous cancers; HD DHEA): decreases in tumor volume
quality of life (spontaneous cancers; HD DHEA supplemented with specific metabolites): increases in quality of life
NO level during HD DHEA ([2]; animals administered HD DHEA): depleted
total pools of isopentenylated tRNA ([2]; buffy coat lymphocytes of dogs treated with DHEA, HPLC): depleted
ubiquinone levels, continuous DHEA treatment ([2]; continuous treatment at doses capable of inducing HD DHEA): decline; also recorded: depleted
one carbon pool products (e.g., AMP, ADP, ATP; purines, pyrimidines, S-adenosylmethionine) during HD DHEA ([2]; dogs administered HD DHEA): profoundly depleted
ubiquinone levels, short term DHEA exposure ([2]; over the short term): increased
BH4 level during HD DHEA [2, 7]: depleted
IPA level during HD DHEA [2, 7]: becomes depleted
important monoamines during HD DHEA [2, 8]: depleted
phenylalanine levels during HD DHEA [2, 8]: increased
side effects observed with HD DHEA ([1]; HD DHEA without reconstitution): motor incoordination sometimes occurs; also recorded: susceptibility to infections, particularly in the ear and eye; also recorded: induction of vasoconstriction; also recorded: Fluid retention; also recorded: auto-inflammatory-like disorder
G6PD inhibition [5]: potent uncompetitive inhibitor of G6PD

C[C@]12C=CC(=O)C=C1CC[C@@H]1[C@@H]2C(=O)C[C@@]2(C)[C@H]1CC[C@]2(O)C(=O)CO [prednisone]
G6PD inhibition [5]: does not inhibit G6PD

C[C@@](O)(CCO)CC(=O)O [mevalonic acid]
reversal of DHEA-induced cell cycle arrest ([3]; addition of mevalonic acid and nucleosides to DHEA-treated HT29SF cells): partly or completely reversed

N[C@@H](Cc1ccc(O)c(O)c1)C(=O)O [L-DOPA]
emesis ([1]; dog, in vivo): can lead to emesis in some dogs

CC(O)C(O)C1CNc2nc(N)[nH]c(=O)c2N1 (stereo not shown) [BH4, tetrahydrobiotperin]
dopamine, norepinephrine and epinephrine levels on replenishment of BH4 ([2]; DHEA-treated animals): restoring normal or near normal
DHEA-induced ocular (ophthalmic) inflammation on reconstitution [1]: prevents
susceptibility to infections under DHEA with concurrent reconstitution [1]: eliminated
fluid retention symptoms under DHEA with concurrent reconstitution [1]: eliminated
